US20250241878A1, “TYROSINE AND RESVERATROL DERIVATIVES AS NOVEL MODULATORS OF CELLULAR SERINE ADP-RIBOSYLATION” (UNIVERSITY OF SOUTH CAROLINA, priority 2022, published 2025)

Assays:
eIF2α = experiment: p-eIF2α Western blot in cortical neurons; format: cell-based, rat; settings: compound alone
Procedure: Primary cortical neurons were dissected from E18 Sprague Dawley rat pups in Hibernate E (BrainBits®) and dissociated using the Neural Tissue Dissociation kit (Miltenyi Biotec). […] After washing and centrifugation, neurons were seeded in 50 μg/ml poly-D-Lysine (Sigma-Aldrich) coated tissue culture plates. NBActive-1 medium (BrainBits®) supplemented with 100 U/ml of Penicillin-Streptomycin (Life TechnologiesTM), 2 mM L-Glutamine (Life TechnologiesTM), and 1×[…] supplement (R&D SystemsTM) was used as culture medium. For preparation of culture medium containing reduced tyrosine, the components of NBActive-1 medium were altered to combined with a reduced concentration of tyrosine, as mentioned in Table 1, and was supplemented with 100 U/ml of Penicillin-Streptomycin (Life TechnologiesTM), 2 mM L-Glutamine (Life TechnologiesTM), and 1×[…] supplement (R&D SystemsTM) to obtained culture medium with reduced tyrosine. […] For PARP1 siRNA, neurons at 7 DIV were transfected with 75 nM siRNA for both control and PARP1 siRNA. […] The lysates were centrifuged at 10,000 RPM for 15 mins at 4° C. to separate the chromatin-bound and soluble fractions. Lysates were quantified using Bio-RadTM Protein Assay and equal amounts of protein were loaded onto a 4 to 12% gradient gel (InvitrogenTM NuPAGETM). […] Quantification of western blots was done using ImageJ (Version 1.53c).

γ-H2AX = γ-H2AX foci immunostaining in cortical neurons; format: cell-based, rat; settings: for γ-H2AX (DNA damage marker): compound alone
Procedure: (§1) Cultured cortical neurons (DIV 9-10) were fixed in 4% formaldehyde for 15 min, followed by permeabilization and blocking for 30 min in 5% BSA (PBS) and 0.1% Tween™ 20 at room temperature. Incubation with primary antibodies was done at 4° C. overnight. The names and dilutions of the primary antibodies used for IF are described in Table 3. Secondary antibodies were incubated for 1 hr at room temperature. Secondary antibodies used were Alexa Fluor® 647 (anti-chicken), Alexa Fluor® 555 (anti-mouse), Alexa Fluor® 488 (anti-rabbit) from Invitrogen™ at 1:1000 dilution. Coverslips were then mounted using DAPI (4′,6-diamidino-2-phenylindole)-supplemented mounting medium, ProLong™ Gold Antifade (Invitrogen™) and imaged with Leica DMI6000 epifluorescent microscope using oil immersion 63×/NA 1.4 objective. The quantification for total protein levels in neurons was done using ImageJ (version 1.53c), and imaging parameters were matched for exposure, gain, and offset.

8-oxo-dG = 8-oxo-dG immunofluorescence in cortical neurons; format: cell-based, rat; settings: for 8-oxo-dG (oxidative DNA damage marker): compound alone
Procedure: as §1

OGG1 = OGG1 levels Western blot in cortical neurons; format: cell-based, rat
Procedure: FIG. 4C presents primary cortical neurons treated with Tyr ([…]) for 8 hr, and OGG1 was detected by Western Blot analysis using anti-OGG1 antibody.
(§2) Cultured neurons (DIV 9-10) were washed once with cold 1×PBS and lysed in cell lysis buffer (20 mM Tris-HCl (pH 7.5), 150 mM NaCl, 1 mM Na2EDTA, 1 mM EGTA, 1% Triton™, 2.5 mM sodium pyrophosphate, 1 mM beta-glycerophosphate, 1 mM Na3VO4, 1 μg/ml leupeptin supplemented with protease inhibitor). The lysates were centrifuged at 10,000 RPM for 15 mins at 4° C. to separate the chromatin-bound and soluble fractions. Lysates were quantified using Bio-Rad™ Protein Assay and equal amounts of protein were loaded onto a 4 to 12% gradient gel (Invitrogen™ NuPAGE™). Protein was transferred from the gel to 0.2 μm NC membranes at 25 V for 10 mins using transfer stacks (iBlot™ 2-Invitrogen™) and blocked with 5% non-fat milk in TBST (10 mM Tris-HCl pH 8.0, 150 mM NaCl, 0.01% Tween-20) for 1 hr before application of primary antibodies. Primary and secondary antibodies were incubated overnight at 4° C. and for 1 hr at room temperature, respectively. Immobilon® ECL Ultra Western HRP Substrate (WBULS0500, Millipore™) and a luminescent image analyzer (ChemiDoc™ Imaging System, Bio-Rad™) were used to detect proteins. Quantification of western blots was done using ImageJ (Version 1.53c).

cleaved caspase-3 = experiment: Cleaved caspase-3 immunoblot; format: cell-based, rat; settings: compound alone; trans-RSV at high concentration
Procedure: FIG. 17E presents immunoblots showing the levels of cleaved caspase-3 in rat cortical neurons (DIV 9/10) after the treatment with D-Tyr (2 mM) for 16 hr.

AcK56-H3 and AcK16-H4 = experiment: Histone acetylation immunoblot (AcK56-H3, AcK16-H4); format: cell-based, rat; design: dose or concentration left out as unconfirmed
neuronal chromatin = experiment: Chromatin fraction immunoblots of cortical neurons; format: cell-based, rat; settings: compound alone
Procedure: as §2

[1] = system: interaction of PARP1 with histone H3; experiment: PARP1 immunoprecipitation probed for H3; format: cell-based, rat
Procedure: FIG. 18A presents representative immunoblots and quantification of the interaction of H3 with PARP1. […] The interaction of PARP1 with H3 was determined using anti-H3 antibody.

PARP1 = settings: previously observed; cited from earlier work
rat cortical neurons = experiment: MTT cell viability assay; design: effect on neurotoxicity induced by etoposide (ETO) / effect on neurotoxicity induced by oxidative stress (H2O2) / effect on neurotoxicity induced by mitochondrial inhibition (MPP+) / neurotoxicity (viability): dose or concentration left out as unconfirmed; settings: for effect on D-Tyr mediated neurotoxicity: combination with D-Tyr
Procedure: Rat cortical neurons (DIV9-11) were exposed to different treatments (NMDA, ETO, H2O2, MPP+) after seeding 20,000 cells/well in 96-well plates. Cell viability was then assessed at 48 hr after the initial exposure to NMDA. 3-[4,5-dimethylthiazole-2-yl]-2,5-diphenyltetrazolium bromide (MTT) assays were used to assess change in cell viability. […] Cultured rat cortical neurons were incubated with MTT (0.5 mg/mL). In the MTT assay, after 2 hr incubation, the insoluble purple product formazan resulting from the reduction of MTT by NAD (P) H-dependent oxidoreductases present in cells with viable mitochondria was solubilized in dimethyl sulfoxide at room temperature, under agitation, and protected from light. The percentage of MTT reduced as measured by the difference between the absorbances at 570 nm read in a spectrophotometer (SpectraMax® 190R Molecular Devices, UK).

HPF1 = HPF1 levels immunoblot in cortical neurons; format: cell-based, rat; settings: compound alone
Procedure: FIG. 5A presents immunoblots showing the protein levels of HPF1 in rat cortical neurons (DIV9-10) after treatment with Tyr ([…]) for up to 8 hr.
as §2

| SMILES | p-eIF2α levels (eIF2α) | levels of cleaved caspase-3 (cleaved caspase-3) | PARylated proteins in the chromatin fraction (neuronal chromatin) | association of PARP1 with the chromatin (neuronal chromatin) | recruitment of ARH3 to the chromatin (neuronal chromatin) | recruitment of PARP2, HPF1 and OGG1 to the chromatin (neuronal chromatin) | auto-PARylation of PARP1 (PARP1) | effect on neurotoxicity induced by etoposide (ETO) (rat cortical neurons) | effect on neurotoxicity induced by mitochondrial inhibition (MPP+) (rat cortical neurons) | effect on neurotoxicity induced by oxidative stress (H2O2) (rat cortical neurons) | effect on D-Tyr mediated neurotoxicity (rat cortical neurons) | γ-H2AX (DNA damage marker) (γ-H2AX) | 8-oxo-dG (oxidative DNA damage marker) (8-oxo-dG) | HPF1 levels (HPF1) | also measured |
| --- | --- | --- | --- | --- | --- | --- | --- | --- | --- | --- | --- | --- | --- | --- | --- |
| Oc1ccc(/C=C\c2cc(O)cc(O)c2)cc1 [cis-RSV, cis-resveratrol] | triggered a transient increase in the levels of p-eIF2α | decreased the levels of caspase-3 cleavage | activated the de-ADP-ribosylation of the chromatin fraction | resulted in its removal from the chromatin | differential effects on the recruitment of ARH3 to the chromatin | facilitated the recruitment of PARP2 along with other DNA repair factors such as HPF1 and OGG1 to the chromatin | stimulate the auto-PARylation | suppressed the neurotoxicity | suppressed the neurotoxicity | suppressed the neurotoxicity | protected against D-Tyr mediated neurotoxicity | – | – | – | γ-H2AX levels (γ-H2AX; added after 12 hr of tyrosine pretreatment): reduced γ-H2AX levels; effect on tyrosine-induced accumulation of γ-H2AX (γ-H2AX; combination with tyrosine): rescued tyrosine-induced accumulation of γ-H2AX and 8-oxo-dG; γ-H2AX levels after ETO-mediated DNA damage (γ-H2AX; with etoposide (ETO)): decreased levels of γ-H2AX; effect on tyrosine-induced accumulation of 8-oxo-dG (8-oxo-dG; combination with tyrosine): rescued tyrosine-induced accumulation of γ-H2AX and 8-oxo-dG; effect on tyrosine-mediated decrease of OGG1 levels (OGG1; combination with tyrosine): rescued; AcK16-H4 acetylation (AcK56-H3 and AcK16-H4; cis-RSV): increased the acetylation of H4 lysine 16; TyrRS in the chromatin fraction (neuronal chromatin): higher levels of TyrRS; recruitment of FEN1 to the chromatin (neuronal chromatin): decreased the recruitment of FEN1; interaction of PARP1 with histone H3 ([1]; cis-RSV): prevented the interaction of PARP1 with histone H3; effect on NMDA-mediated toxicity (rat cortical neurons; cis-RSV): protected against NMDA-mediated toxicity in a concentration-dependent manner; effect on trans-RSV-mediated neurotoxicity (rat cortical neurons; combination with trans-RSV): protected against the neurotoxicity induced by trans-RSV in a dose-dependent manner |
| N[C@@H](Cc1ccc(O)cc1)C(=O)O [tyrosine, L-tyrosine] | – | – | – | trapping of PARP1 | – | – | inhibits the auto-PARylation of PARP1 | – | – | – | – | accumulation of γ-H2AX foci | resulted in the accumulation | decreased HPF1 levels | OGG1 levels (OGG1; compound alone): decreased 8-oxoguanine-DNA glycosylase (OGG1) levels |
| Oc1ccc(/C=C/c2cc(O)cc(O)c2)cc1 [trans-RSV, trans-resveratrol] | sustained the inhibition of eIF2α | increased the levels of cleaved caspase-3 | increased the levels of PARylated proteins in the chromatin fraction | increased the association of PARP1 with the chromatin | differential effects on the recruitment of ARH3 to the chromatin | prevented their recruitment | – | did not protect against these neurotoxic agents | did not protect against these neurotoxic agents | did not protect against these neurotoxic agents | protected against D-Tyr mediated neurotoxicity but not trans-RSV | caused the accumulation of γ-H2AX and 8-oxo-dG | caused the accumulation of γ-H2AX and 8-oxo-dG | decreased HPF1 levels | AcK16-H4 acetylation (AcK56-H3 and AcK16-H4; trans-RSV): inhibited H3 and H4 acetylation at lysines 56 and 16; AcK56-H3 acetylation (AcK56-H3 and AcK16-H4; trans-RSV): inhibited H3 and H4 acetylation at lysines 56 and 16; interaction of PARP1 with histone H3 ([1]; higher concentrations (≥25 mM) of trans-RSV): increased it; interaction of PARP1 with histone H3 ([1]; low concentrations of trans-RSV): prevented the interaction of PARP1 with histone H3; neurotoxicity (viability) (rat cortical neurons): by itself was neurotoxic; effect on NMDA mediated neurotoxicity (rat cortical neurons; higher concentrations of trans-RSV (≥25 mM)): exacerbated the toxicity; effect on NMDA mediated neurotoxicity (rat cortical neurons; low concentrations of trans-RSV (≤10 mM)): evoked protective effects |
